We go through one compound from patent US12516356B2, “Process for the detoxification of lignocellulosic hydrolysate and its use in synthesizing xylitol” (COUNCIL OF SCIENTIFIC AND INDUSTRIAL RESEARCH, priority 2020, dated 2026).

This series deals with HepG2 cell lines. Put plainly: cytotoxicity studies on HepG2 cell lines. It is filed as cell-based. The conditions noted are these: xylitol crystals recovered from fermentation broth.

Consider `OC[C@@H](O)[C@H](O)[C@@H](O)CO` [Xylitol crystals, xylitol], for which the “toxic effect on HepG2 cell lines (cytotoxicity studies)” value is recorded as “no toxic effect”.
